Measurements from patent US20230373985A1 (Origenis Gmbh, priority 2020, published 2023).

Assays:
[1] = target: T1, wt human TYK2, catalytic site (Homo sapiens, UniProt P29597); assay: HTRF KinEASE assay, TYK2; assay type: biochemical; settings: 1 μM ATP; read-out: IC50, Activity Toward TYK2
T1 construct: wt human TYK2, catalytic site; purchased SignalChem
T1 sequence (P29597 897-1176 limits assumed): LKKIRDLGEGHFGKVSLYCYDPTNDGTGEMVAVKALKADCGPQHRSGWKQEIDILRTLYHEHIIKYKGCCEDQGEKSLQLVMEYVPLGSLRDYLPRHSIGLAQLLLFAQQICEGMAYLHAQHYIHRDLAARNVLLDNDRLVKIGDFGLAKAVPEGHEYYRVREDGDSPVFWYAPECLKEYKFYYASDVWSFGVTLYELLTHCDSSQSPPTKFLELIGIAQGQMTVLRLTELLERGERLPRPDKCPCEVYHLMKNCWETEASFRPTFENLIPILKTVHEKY
Procedure, shortened: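 HTRF KinEASE-TK readout with 1 μM biotinylated TK substrate in 1× kinase buffer, ≥30 min at room temperature, then antibody/streptavidin-XL665 detection for 60 min. TYK2 at 2 nM with 1 μM ATP; JAK2 at 1 nM with 100 μM ATP. Analysis uses emission ratios.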

[2] = target: T2, wt human JAK1, catalytic site (Homo sapiens, UniProt P23458); assay: HTRF KinEASE assay, JAK1; assay type: biochemical; settings: 2.5 μM ATP; read-out: IC50, Activity Toward JAK1
T2 construct: wt human JAK1, catalytic site; purchased ThermoFisher
Procedure, shortened: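 Two-step HTRF KinEASE assay: compound, kinase/biotinylated TK substrate and ATP were incubated at least 30 min at room temperature. Antibody plus streptavidin-XL665 was then added and plates were read after 60 min. Inhibition was derived from emission ratios according to the kit protocol.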

T2 sequence (P23458 875-1153 limits assumed): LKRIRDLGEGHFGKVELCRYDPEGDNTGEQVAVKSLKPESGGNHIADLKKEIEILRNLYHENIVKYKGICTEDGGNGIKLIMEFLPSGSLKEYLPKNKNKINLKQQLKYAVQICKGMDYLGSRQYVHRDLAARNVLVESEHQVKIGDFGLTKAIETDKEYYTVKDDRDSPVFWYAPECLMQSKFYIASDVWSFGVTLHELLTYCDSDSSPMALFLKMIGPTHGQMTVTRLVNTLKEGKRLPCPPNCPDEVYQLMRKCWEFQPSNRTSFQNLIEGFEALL

Compound NC(=O)c1nn(-c2c(Cl)cccc2Cl)cc1Nc1ccc(-c2nnccc2C(F)(F)F)cc1 [compound 69, 1-(2,6-dichlorophenyl)-4-((4-(4-(trifluoromethyl)pyridazin-3-yl)phenyl)amino)-1H-pyrazole-3-carboxamide] has an IC50 [1] of 0.01 to 0.1 µM and an IC50 [2] of 0.1 to 1 µM.

Work on N#CC1CN(C(=O)c2ccc(Nc3nn(-c4c(Cl)cccc4Cl)nc3C(N)=O)nc2)C1 [compound 153, 5-((5-(3-cyanoazetidine-1-carbonyl)pyridin-2-yl)amino)-2-(2,6-dichlorophenyl)-2H-1,2,3-triazole-4-carboxamide] yielded an IC50 [1] of 0.01 to 0.1 µM and an IC50 [2] of 0.01 to 0.1 µM.

Work on NC(=O)c1nn(-c2c(Cl)cc(F)cc2Cl)nc1Nc1ccc(C(=O)N2CCS(=O)(=O)CC2)cc1 [compound 175, 2-(2,6-dichloro-4-fluorophenyl)-5-((4-(1,1-dioxidothiomorpholine-4-carbonyl)phenyl)amino)-2H-1,2,3-triazole-4-carboxamide] yielded an IC50 [1] of under 0.01 µM and an IC50 [2] of under 0.01 µM.

For COCCn1cc(C(F)(F)F)nc1-c1ccc(Nc2cn(-c3c(Cl)cccc3Cl)nc2C(N)=O)cc1 [compound 307, 1-(2,6-dichlorophenyl)-4-((4-(1-(2-methoxyethyl)-4-(trifluoromethyl)-1H-imidazol-2-yl)phenyl)amino)-1H-pyrazole-3-carboxamide], the IC50 [1] was 0.01 to 0.1 µM and the IC50 [2] was 0.1 to 1 µM.

With Cn1cc(Nc2cn(-c3c(Cl)cccc3Cl)nc2C(N)=O)cn1 [compound 377, 1-(2,6-dichlorophenyl)-4-((1-methyl-1H-pyrazol-4-yl)amino)-1H-pyrazole-3-carboxamide] the IC50 [1] was 0.1 to 1 µM and the IC50 [2] was 0.01 to 0.1 µM.

With NC(=O)c1nn(-c2c(Cl)cccc2Cl)cc1Nc1ccc(C(=O)N2CCN(CC(F)(F)F)CC2)cc1 [compound 93, 1-(2,6-dichlorophenyl)-4-((4-(4-(2,2,2-trifluoroethyl)piperazine-1-carbonyl)phenyl)amino)-1H-pyrazole-3-carboxamide] the IC50 [1] was 0.01 to 0.1 µM and the IC50 [2] was 0.1 to 1 µM.

CCc1nc(C(F)(F)F)nn1-c1ccc(Nc2cn(-c3c(Cl)cccc3Cl)nc2C(N)=O)cc1 [compound 277, 1-(2,6-dichlorophenyl)-4-((4-(5-ethyl-3-(trifluoromethyl)-1H-1,2,4-triazol-1-yl)phenyl)amino)-1H-pyrazole-3-carboxamide] gave an IC50 [1] of under 0.01 µM and an IC50 [2] of 0.1 to 1 µM.

With COCc1ncnn1-c1ccc(Nc2cn(-c3c(Cl)cccc3Cl)nc2C(N)=O)cc1 [compound 300, 1-(2,6-dichlorophenyl)-4-((4-(5-(methoxymethyl)-1H-1,2,4-triazol-1-yl)phenyl)amino)-1H-pyrazole-3-carboxamide] the IC50 [1] was 0.01 to 0.1 µM and the IC50 [2] was 0.1 to 1 µM.

NC(=O)c1nn(-c2c(Cl)cccc2Cl)cc1Nc1ccc(-n2nncc2C(F)(F)F)cc1 [compound 438, 1-(2,6-dichlorophenyl)-4-((4-(5-(trifluoromethyl)-1H-1,2,3-triazol-1-yl)phenyl)amino)-1H-pyrazole-3-carboxamide] gave an IC50 [1] of 0.01 to 0.1 µM and an IC50 [2] of 0.1 to 1 µM.

In the case of CC(C)c1ncnn1-c1ccc(Nc2cn(-c3c(Cl)cccc3Cl)nc2C(N)=O)cc1 [compound 341, 1-(2,6-dichlorophenyl)-4-((4-(5-isopropyl-1H-1,2,4-triazol-1-yl)phenyl)amino)-1H-pyrazole-3-carboxamide], the IC50 [1] is reported as 0.01 to 0.1 µM and the IC50 [2] is reported as 0.1 to 1 µM.

Compound NC(=O)c1nn(-c2c(Cl)cccc2Cl)cc1Nc1ccc(CC(=O)N2CC(F)C2)nc1 [compound 441, 1-(2,6-dichlorophenyl)-4-((6-(2-(3-fluoroazetidin-1-yl)-2-oxoethyl)pyridin-3-yl)amino)-1H-pyrazole-3-carboxamide] has an IC50 [1] of 0.1 to 1 µM and an IC50 [2] of 0.1 to 1 µM.

For NC(=O)c1nn(-c2c(Cl)cccc2Cl)cc1Nc1ccc(CC(=O)N2CCOCC2)nc1 [compound 440, 1-(2,6-dichlorophenyl)-4-((6-(2-morpholino-2-oxoethyl)pyridin-3-yl)amino)-1H-pyrazole-3-carboxamide], the IC50 [1] was 0.1 to 1 µM and the IC50 [2] was 0.01 to 0.1 µM.
